Test results reported in PubChem BioAssay (NCI).
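Interpolation was linear, between the two tested concentrations surrounding the appropriate level; five concentrations were tested over 48 hours in 96-well plates. At the GI50, growth is halved. TGI marks complete inhibition of growth.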

Tests used:
Assay in all cases: inhibition of tumour cell growth, NCI panel, 48 h
786-0 renal = test system: 786-0 renal
A498 renal = test system: A498 renal
A549 NSCLC = test system: A549 NSCLC
ACHN renal = test system: ACHN renal
BT-549 breast = test system: BT-549 breast
CAKI-1 renal = test system: CAKI-1 renal
CCRF-CEM leukemia = test system: CCRF-CEM leukemia
COLO 205 colon = test system: COLO 205 colon
DU-145 prostate = test system: DU-145 prostate
EKVX NSCLC = test system: EKVX NSCLC
HCC-2998 colon = test system: HCC-2998 colon
HCT-116 colon = test system: HCT-116 colon
HCT-15 colon = test system: HCT-15 colon
HL-60(TB) leukemia = test system: HL-60(TB) leukemia
HOP-62 NSCLC = test system: HOP-62 NSCLC
HOP-92 NSCLC = test system: HOP-92 NSCLC
HS 578T breast = test system: HS 578T breast
HT29 colon = test system: HT29 colon
IGROV1 ovarian = test system: IGROV1 ovarian
K-562 leukemia = test system: K-562 leukemia
KM12 colon = test system: KM12 colon
LOX IMVI melanoma = test system: LOX IMVI melanoma
M14 melanoma = test system: M14 melanoma
MALME-3M melanoma = test system: MALME-3M melanoma
MCF7 breast = test system: MCF7 breast
MDA-MB-231 breast = test system: MDA-MB-231 breast
MDA-MB-435 = test system: MDA-MB-435
MOLT-4 leukemia = test system: MOLT-4 leukemia
NCI-H226 lung = test system: NCI-H226 lung
NCI-H23 lung = test system: NCI-H23 lung
NCI-H460 lung = test system: NCI-H460 lung
NCI-H522 lung = test system: NCI-H522 lung
NCI/ADR-RES ovarian = test system: NCI/ADR-RES ovarian
OVCAR-3 ovarian = test system: OVCAR-3 ovarian
OVCAR-4 ovarian = test system: OVCAR-4 ovarian
OVCAR-5 ovarian = test system: OVCAR-5 ovarian
OVCAR-8 ovarian = test system: OVCAR-8 ovarian
PC-3 prostate = test system: PC-3 prostate
RPMI-8226 leukemia = test system: RPMI-8226 leukemia
RXF 393 renal = test system: RXF 393 renal
SF-268 CNS = test system: SF-268 CNS
SF-295 CNS = test system: SF-295 CNS
SF-539 CNS = test system: SF-539 CNS
SK-MEL-2 melanoma = test system: SK-MEL-2 melanoma
SK-MEL-28 melanoma = test system: SK-MEL-28 melanoma
SK-MEL-5 melanoma = test system: SK-MEL-5 melanoma
SK-OV-3 ovarian = test system: SK-OV-3 ovarian
SN12C renal = test system: SN12C renal
SNB-19 CNS = test system: SNB-19 CNS
SNB-75 CNS = test system: SNB-75 CNS
SR leukemia = test system: SR leukemia
SW-620 colon = test system: SW-620 colon
T-47D breast = test system: T-47D breast
TK-10 renal = test system: TK-10 renal
U251 CNS = test system: U251 CNS
UACC-257 melanoma = test system: UACC-257 melanoma
UACC-62 melanoma = test system: UACC-62 melanoma
UO-31 renal = test system: UO-31 renal

SMILES: O=C(Nc1ccc(Oc2ccc3nc(NC(=O)c4ccco4)[nH]c3c2)cc1)Nc1cc(C(F)(F)F)ccc1F
- GI50 (786-0 renal): 3.55 µM
- TGI (786-0 renal): 10.4 µM
- GI50 (A498 renal): 0.929 µM
- TGI (A498 renal): 5.4 µM
- GI50 (A549 NSCLC): 3.19 µM
- TGI (A549 NSCLC): 11.8 µM
- GI50 (ACHN renal): 1.28 µM
- TGI (ACHN renal): 6.08 µM
- GI50 (BT-549 breast): 2.08 µM
- TGI (BT-549 breast): 6.05 µM
- GI50 (CAKI-1 renal): 1.81 µM
- TGI (CAKI-1 renal): > 14.4 µM
- GI50 (CCRF-CEM leukemia): 1.85 µM
- TGI (CCRF-CEM leukemia): > 25 µM
- GI50 (COLO 205 colon): 3.02 µM
- TGI (COLO 205 colon): 11.4 µM
- GI50 (DU-145 prostate): 2.92 µM
- TGI (DU-145 prostate): 10.6 µM
- GI50 (EKVX NSCLC): 1.75 µM
- TGI (EKVX NSCLC): > 25 µM
- GI50 (HCC-2998 colon): 2.44 µM
- TGI (HCC-2998 colon): > 20.1 µM
- GI50 (HCT-116 colon): 0.437 µM
- TGI (HCT-116 colon): 4.57 µM
- GI50 (HCT-15 colon): 1.33 µM
- TGI (HCT-15 colon): > 17.2 µM
- GI50 (HL-60(TB) leukemia): 0.823 µM
- TGI (HL-60(TB) leukemia): 7.07 µM
- GI50 (HOP-62 NSCLC): 3.44 µM
- TGI (HOP-62 NSCLC): 10.7 µM
- GI50 (HOP-92 NSCLC): 0.234 µM
- TGI (HOP-92 NSCLC): 5.74 µM
- GI50 (HS 578T breast): 0.446 µM
- TGI (HS 578T breast): 3.42 µM
- GI50 (HT29 colon): 1.18 µM
- TGI (HT29 colon): 6.09 µM
- GI50 (IGROV1 ovarian): 1.23 µM
- TGI (IGROV1 ovarian): 10.2 µM
- GI50 (K-562 leukemia): 0.0122 µM
- TGI (K-562 leukemia): 6.11 µM
- GI50 (KM12 colon): 0.0178 µM
- TGI (KM12 colon): 4.31 µM
- GI50 (LOX IMVI melanoma): 0.537 µM
- TGI (LOX IMVI melanoma): 6.04 µM
- GI50 (M14 melanoma): 0.786 µM
- TGI (M14 melanoma): 5.16 µM
- GI50 (MALME-3M melanoma): 0.699 µM
- TGI (MALME-3M melanoma): 5.31 µM
- GI50 (MCF7 breast): 2.94 µM
- TGI (MCF7 breast): 15.6 µM
- GI50 (MDA-MB-231 breast): 1.09 µM
- TGI (MDA-MB-231 breast): 5.77 µM
- GI50 (MDA-MB-435): 0.973 µM
- TGI (MDA-MB-435): 7.71 µM
- GI50 (MOLT-4 leukemia): 2.21 µM
- TGI (MOLT-4 leukemia): 15.7 µM
- GI50 (NCI-H226 lung): 0.28 µM
- TGI (NCI-H226 lung): 4.02 µM
- GI50 (NCI-H23 lung): 0.852 µM
- TGI (NCI-H23 lung): 9.08 µM
- GI50 (NCI-H460 lung): 1.35 µM
- TGI (NCI-H460 lung): 6.85 µM
- GI50 (NCI-H522 lung): 3.03 µM
- TGI (NCI-H522 lung): 9.55 µM
- GI50 (NCI/ADR-RES ovarian): 1.71 µM
- TGI (NCI/ADR-RES ovarian): 11.4 µM
- GI50 (OVCAR-3 ovarian): 2.9 µM
- TGI (OVCAR-3 ovarian): 7.22 µM
- GI50 (OVCAR-4 ovarian): 1.25 µM
- TGI (OVCAR-4 ovarian): > 13.8 µM
- GI50 (OVCAR-5 ovarian): 1.49 µM
- TGI (OVCAR-5 ovarian): 8.63 µM
- GI50 (OVCAR-8 ovarian): 1.26 µM
- TGI (OVCAR-8 ovarian): 6.92 µM
- GI50 (PC-3 prostate): 1.49 µM
- TGI (PC-3 prostate): 8.59 µM
- GI50 (RPMI-8226 leukemia): 2.17 µM
- TGI (RPMI-8226 leukemia): 10.6 µM
- GI50 (RXF 393 renal): 1.28 µM
- TGI (RXF 393 renal): 5.13 µM
- GI50 (SF-268 CNS): 2.55 µM
- TGI (SF-268 CNS): 14.1 µM
- GI50 (SF-295 CNS): 1.76 µM
- TGI (SF-295 CNS): > 12.2 µM
- GI50 (SF-539 CNS): 0.943 µM
- TGI (SF-539 CNS): 5.69 µM
- GI50 (SK-MEL-2 melanoma): 0.668 µM
- TGI (SK-MEL-2 melanoma): 4.37 µM
- GI50 (SK-MEL-28 melanoma): 2.08 µM
- TGI (SK-MEL-28 melanoma): 7.04 µM
- GI50 (SK-MEL-5 melanoma): 1.16 µM
- TGI (SK-MEL-5 melanoma): 4.74 µM
- GI50 (SK-OV-3 ovarian): 3.44 µM
- TGI (SK-OV-3 ovarian): 12.1 µM
- GI50 (SN12C renal): 0.89 µM
- TGI (SN12C renal): 10.9 µM
- GI50 (SNB-19 CNS): 6.95 µM
- TGI (SNB-19 CNS): > 25 µM
- GI50 (SNB-75 CNS): 2.39 µM
- TGI (SNB-75 CNS): 10.2 µM
- GI50 (SR leukemia): 0.964 µM
- TGI (SR leukemia): 7.36 µM
- GI50 (SW-620 colon): 1.25 µM
- TGI (SW-620 colon): > 17.8 µM
- GI50 (T-47D breast): 2 µM
- TGI (T-47D breast): 8.19 µM
- GI50 (TK-10 renal): 2.57 µM
- TGI (TK-10 renal): 12.8 µM
- GI50 (U251 CNS): 3.33 µM
- TGI (U251 CNS): > 15.3 µM
- GI50 (UACC-257 melanoma): 2.25 µM
- TGI (UACC-257 melanoma): 8.74 µM
- GI50 (UACC-62 melanoma): 0.844 µM
- TGI (UACC-62 melanoma): 5.48 µM
- GI50 (UO-31 renal): 0.874 µM
- TGI (UO-31 renal): 5.27 µM
